# Experiments:
# hTAS1R2/rTAS1R3(Mut2) = molecular target: T1, hTAS1R2/rTAS1R3(Mut2) (UniProt Q8TE23+Q923K1, L72W/P67S/S282A/Y281H); experiment: Calcium assay, mutated rTAS1R3 co-expressed with hTAS1R2; assay type: cell-based, human, rat
# T1 construct: The cDNA coding region of rTAS1R3 was synthesized with optimized-codon usage for human expression; expressed in transfected cells
# [1] = molecular target: T2, hTAS1R1/hTAS1R3(r570–858) (Homo sapiens, UniProt Q7RTX1); experiment: Calcium assay, chimeric TAS1R3 co-expressed with hTAS1R1; assay type: cell-based, rat; settings: data not shown
# T2 construct: UniProtKB number Q7RTX1–1); expressed in transfected cells; host or cells: HEK293T/17 (inferred from the general method)
# T2 sequence (Q7RTX1 21-841): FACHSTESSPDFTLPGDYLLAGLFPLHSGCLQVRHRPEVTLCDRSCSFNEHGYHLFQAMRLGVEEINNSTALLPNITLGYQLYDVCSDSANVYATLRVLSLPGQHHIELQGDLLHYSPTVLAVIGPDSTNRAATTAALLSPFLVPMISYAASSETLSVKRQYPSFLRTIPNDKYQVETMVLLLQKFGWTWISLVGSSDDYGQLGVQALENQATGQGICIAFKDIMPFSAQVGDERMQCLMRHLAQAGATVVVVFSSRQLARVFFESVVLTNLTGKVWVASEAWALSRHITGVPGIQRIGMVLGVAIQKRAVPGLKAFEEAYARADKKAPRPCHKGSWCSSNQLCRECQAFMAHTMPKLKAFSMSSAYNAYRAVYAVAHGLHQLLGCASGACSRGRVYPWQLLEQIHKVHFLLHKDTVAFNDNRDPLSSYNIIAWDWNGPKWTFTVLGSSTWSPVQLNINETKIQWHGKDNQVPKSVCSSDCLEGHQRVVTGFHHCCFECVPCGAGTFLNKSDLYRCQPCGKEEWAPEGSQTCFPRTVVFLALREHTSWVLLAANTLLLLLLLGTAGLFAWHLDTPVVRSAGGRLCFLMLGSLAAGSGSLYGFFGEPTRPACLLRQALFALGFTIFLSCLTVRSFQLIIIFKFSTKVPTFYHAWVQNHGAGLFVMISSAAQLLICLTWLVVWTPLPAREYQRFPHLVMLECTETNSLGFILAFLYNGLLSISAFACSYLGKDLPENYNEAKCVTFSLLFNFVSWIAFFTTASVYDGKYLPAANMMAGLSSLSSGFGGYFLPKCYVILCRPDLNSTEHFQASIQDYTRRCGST
# Description: (§1) Chimeric Gα proteins, such as Gα16Gust44, Gα16Gi3 or Gα15i2, are widely used in the functional expression of TAS1R receptors ([Backes et al., 2015]; [Suess et al., 2015]; [Toda et al., 2021], [Toda et al., 2013], [Toda et al., 2018]; [Zhang et al., 2008]). Chimeric Gα15i2 (([Toda et al., 2013]), Supplementary data) was generated by replacing the last five residues of the C-terminal tail of rat Gα15i2 (EINLL) (UniProt number G3V6N8; https://www.uniprot.org/uniprot/) with the counterpart sequence from human GNAI2 (DCGLF) (UniProt number P04899-1) and cloning into the pcDNA3.1/Hygro vector (Invitrogen, Thermo Fisher Scientific, Illkirch, France) between the HindIII and NotI restriction sites, resulting in the plasmid pcDNA3.1-Gα15i2. Chimeric Gα16Gust44 construct have already been reported ([Raliou et al., 2011]). Briefly, Gα16Gust44 was generated by replacing the C-terminal of Gα16 with the C-terminal 44 residues of gustducin. As previously described, hTAS1R1 was amplified from human fungiform papillae cDNA and cloned and inserted into pcDNA3 (Invitrogen), generating pcDNA3-TAS1R1-WT (wild-type) ([Raliou et al., 2011]). […]
# hTAS1R1/hTAS1R3(r1–575) = molecular target: T3, hTAS1R1/hTAS1R3(r1–575) (Homo sapiens, UniProt Q7RTX1); experiment: as above; assay type: cell-based, rat; settings: data not shown
# T3 construct: UniProtKB number Q7RTX1–1); expressed in transfected cells; host or cells: HEK293T/17 (inferred from the general method)
# T3 sequence (Q7RTX1 21-841): as above
# Description: as §1
# hTAS1R1 H71L/rTAS1R3 = molecular target: T4, hTAS1R1 H71L/rTAS1R3 (Homo sapiens, UniProt Q7RTX1, H71L); experiment: Calcium assay, hTAS1R1 mutant co-expressed with rTAS1R3; assay type: cell-based, rat
# T4 construct: expressed in transfected cells; host or cells: HEK293T/17 (ATCC CRL-11268)
# T4 sequence (Q7RTX1 21-841 H71L): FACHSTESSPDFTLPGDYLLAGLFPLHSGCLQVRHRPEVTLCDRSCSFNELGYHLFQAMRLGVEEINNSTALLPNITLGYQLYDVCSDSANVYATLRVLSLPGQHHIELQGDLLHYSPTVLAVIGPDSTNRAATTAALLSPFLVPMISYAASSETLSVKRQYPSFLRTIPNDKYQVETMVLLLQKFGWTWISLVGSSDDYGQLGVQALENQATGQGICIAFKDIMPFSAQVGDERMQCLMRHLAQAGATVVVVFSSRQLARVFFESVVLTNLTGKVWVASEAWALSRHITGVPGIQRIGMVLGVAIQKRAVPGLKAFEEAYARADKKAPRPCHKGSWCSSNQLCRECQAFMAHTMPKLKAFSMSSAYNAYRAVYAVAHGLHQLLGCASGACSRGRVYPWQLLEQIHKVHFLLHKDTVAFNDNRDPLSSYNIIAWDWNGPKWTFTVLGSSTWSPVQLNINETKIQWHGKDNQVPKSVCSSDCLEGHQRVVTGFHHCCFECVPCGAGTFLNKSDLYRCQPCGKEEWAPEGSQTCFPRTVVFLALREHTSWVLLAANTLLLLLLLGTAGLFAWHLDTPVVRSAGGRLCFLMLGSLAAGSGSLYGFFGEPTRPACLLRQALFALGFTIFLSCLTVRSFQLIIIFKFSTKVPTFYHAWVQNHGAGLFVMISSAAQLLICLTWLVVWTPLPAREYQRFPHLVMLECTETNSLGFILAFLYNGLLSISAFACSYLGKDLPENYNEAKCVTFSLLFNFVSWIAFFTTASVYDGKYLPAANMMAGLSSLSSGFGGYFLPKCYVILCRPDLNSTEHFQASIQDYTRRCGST
# T4 sequence (Q923K1 21-858 partner): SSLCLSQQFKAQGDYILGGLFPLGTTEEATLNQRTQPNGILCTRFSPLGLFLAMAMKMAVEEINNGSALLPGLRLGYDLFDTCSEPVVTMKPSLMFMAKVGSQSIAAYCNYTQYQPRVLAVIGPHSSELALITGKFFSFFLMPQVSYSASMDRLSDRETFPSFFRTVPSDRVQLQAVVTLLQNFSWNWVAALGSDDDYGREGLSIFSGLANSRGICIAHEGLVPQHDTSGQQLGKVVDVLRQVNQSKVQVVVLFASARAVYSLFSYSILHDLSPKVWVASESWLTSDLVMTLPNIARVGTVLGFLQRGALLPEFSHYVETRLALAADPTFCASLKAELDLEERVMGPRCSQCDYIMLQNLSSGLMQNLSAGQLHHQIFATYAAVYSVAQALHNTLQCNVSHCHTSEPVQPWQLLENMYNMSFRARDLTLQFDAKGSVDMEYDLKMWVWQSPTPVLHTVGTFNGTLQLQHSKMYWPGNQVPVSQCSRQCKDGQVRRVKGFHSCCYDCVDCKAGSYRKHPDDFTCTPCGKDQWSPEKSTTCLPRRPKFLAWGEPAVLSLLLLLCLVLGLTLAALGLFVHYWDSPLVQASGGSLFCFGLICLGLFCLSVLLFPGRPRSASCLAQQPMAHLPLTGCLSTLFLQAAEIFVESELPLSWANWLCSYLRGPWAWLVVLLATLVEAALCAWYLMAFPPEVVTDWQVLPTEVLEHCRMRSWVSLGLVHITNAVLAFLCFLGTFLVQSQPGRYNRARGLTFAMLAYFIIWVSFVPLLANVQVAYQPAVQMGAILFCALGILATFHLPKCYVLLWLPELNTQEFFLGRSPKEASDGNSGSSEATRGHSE
# T1 sequence (Q8TE23 20-839): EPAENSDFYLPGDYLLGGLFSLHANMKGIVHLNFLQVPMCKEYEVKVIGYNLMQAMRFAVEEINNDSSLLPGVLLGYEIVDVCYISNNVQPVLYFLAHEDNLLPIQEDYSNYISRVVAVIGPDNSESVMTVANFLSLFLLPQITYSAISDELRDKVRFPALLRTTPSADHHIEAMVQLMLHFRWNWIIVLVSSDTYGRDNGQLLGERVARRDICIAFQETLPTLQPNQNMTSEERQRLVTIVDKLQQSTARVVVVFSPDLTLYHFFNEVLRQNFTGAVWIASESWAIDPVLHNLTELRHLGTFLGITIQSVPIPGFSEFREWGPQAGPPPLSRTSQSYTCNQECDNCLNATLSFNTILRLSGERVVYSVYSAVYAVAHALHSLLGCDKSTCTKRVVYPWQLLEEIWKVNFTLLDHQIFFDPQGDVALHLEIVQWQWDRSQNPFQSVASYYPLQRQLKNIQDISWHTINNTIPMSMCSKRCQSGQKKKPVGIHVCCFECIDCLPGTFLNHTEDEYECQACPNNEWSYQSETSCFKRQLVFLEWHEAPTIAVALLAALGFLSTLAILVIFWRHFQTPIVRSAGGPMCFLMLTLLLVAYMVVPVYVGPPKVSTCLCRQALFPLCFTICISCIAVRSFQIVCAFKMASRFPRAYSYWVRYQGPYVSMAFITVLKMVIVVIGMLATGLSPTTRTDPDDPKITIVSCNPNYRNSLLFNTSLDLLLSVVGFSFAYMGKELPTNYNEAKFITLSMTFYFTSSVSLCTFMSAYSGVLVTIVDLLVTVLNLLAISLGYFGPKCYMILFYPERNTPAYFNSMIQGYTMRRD
# T1 sequence (Q923K1 21-858 P67S/L72W/Y281H/S282A): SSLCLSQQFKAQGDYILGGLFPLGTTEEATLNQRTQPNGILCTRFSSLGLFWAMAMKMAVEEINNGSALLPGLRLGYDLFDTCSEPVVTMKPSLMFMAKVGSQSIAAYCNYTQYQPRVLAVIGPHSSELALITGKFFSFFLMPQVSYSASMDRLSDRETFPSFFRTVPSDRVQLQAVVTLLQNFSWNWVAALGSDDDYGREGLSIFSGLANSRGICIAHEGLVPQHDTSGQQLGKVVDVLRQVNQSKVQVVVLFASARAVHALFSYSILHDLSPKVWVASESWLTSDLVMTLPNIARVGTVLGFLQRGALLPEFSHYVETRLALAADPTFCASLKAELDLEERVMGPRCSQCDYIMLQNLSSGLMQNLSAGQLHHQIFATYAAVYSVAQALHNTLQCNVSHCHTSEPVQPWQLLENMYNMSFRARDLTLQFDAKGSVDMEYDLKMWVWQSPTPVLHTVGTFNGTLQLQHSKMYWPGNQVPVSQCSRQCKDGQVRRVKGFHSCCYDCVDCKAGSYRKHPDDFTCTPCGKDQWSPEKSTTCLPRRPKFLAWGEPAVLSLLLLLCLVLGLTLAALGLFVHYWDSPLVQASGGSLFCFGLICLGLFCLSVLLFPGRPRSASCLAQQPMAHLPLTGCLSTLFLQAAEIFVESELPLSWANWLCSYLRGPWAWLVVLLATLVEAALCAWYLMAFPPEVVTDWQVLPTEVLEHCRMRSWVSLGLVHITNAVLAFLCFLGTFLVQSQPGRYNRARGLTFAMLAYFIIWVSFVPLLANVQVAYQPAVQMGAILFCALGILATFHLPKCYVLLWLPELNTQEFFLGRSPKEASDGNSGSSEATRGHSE
smiles,measurement,setting,value
"OC[C@H]1O[C@H](O[C@]2(CCl)O[C@H](CCl)[C@@H](O)[C@@H]2O)[C@H](O)[C@@H](O)[C@H]1Cl [sucralose, reference compound]",EC50,"hTAS1R2/rTAS1R3(Mut2); sucralose alone, Fig. 4A",0.493 ± 0.114 mM
"N[C@@H](CCC(=O)O)C(=O)O [L-Glu, L-glutamic acid, reference compound]",response of the receptor,[1],did not respond
same,response of the receptor,hTAS1R1/hTAS1R3(r1–575),did not respond
"N[C@@H](CCC(=O)N[C@@H](CS)C(=O)NCC(=O)O)C(=O)O [GSH, γ-L-glutamyl-L-cysteinyl-glycine]",EC50,hTAS1R1 H71L/rTAS1R3,2.27 ± 0.123 mM
same,"response to the agonist alone, vs WT",hTAS1R1 H71L/rTAS1R3; H71L,significantly increased the initial amplitude
same,Max ∆F/F0,"hTAS1R1 H71L/rTAS1R3; H71L, GSH",1.24 ± 0.0
same,R1 = mutant EC50/WT EC50,"hTAS1R1 H71L/rTAS1R3; H71L, GSH",0.9
same,effect of 10 mM GSH on the response to sucralose,hTAS1R2/rTAS1R3(Mut2),not increased

# — paper PMC12615753, “Glutathione as a taste modulator: molecular mechanisms of interaction with umami and sweet taste receptors” (Food Chemistry: Molecular Sciences, 2025)
